Assay results as given in patent US8703815B2, “Small molecules that covalently modify transthyretin” (The Scripps Research Institute, priority 2009, dated 2014).
Where two headings read alike, the source gives them in different places. Blank lines part the entries; values can stand above or below the molecule they belong to.

Key:
[1] = biological target: T1, WT-TTR (Homo sapiens, UniProt P02766); experiment: RP-HPLC analysis of conjugation to recombinant WT-TTR; assay type: binding; details: data not shown
T1 construct: composed of 127-residue β-sheet-rich subunits; made in house; host or cells: E. coli
Experimental: The ability of candidate covalent kinetic stabilizers Compounds 1-4 to form a chemoselective amide bond with the K15 residue of WT-TTR was assessed by incubating the recombinant WT-TTR tetramer (3.6 μM) with Compounds 1-4 (7.2 μM, the minimum concentration required to covalently modify both T4 binding sites) for 18 hours at 25° C. The stilbene-TTR conjugate was quantified by reverse-phase (RP)-HPLC using a denaturing acetonitrile gradient.
Recombinant WT-TTR was expressed as described previously [Lashuel et al., Biochemistry 38:13560-13573 (1999)]. For analysis of test compounds with TTR, each compound (1.5 μL in DMSO, 1.44 mM) was added to 300 μL of WT-TTR or K15A mutant TTR (3.6 μM, 10 mM sodium phosphate, 100 mM KCl, 1 mM EDTA, pH 7.0). The samples were vortexed, and incubated for 18 hours at 25° C. Reverse phase high performance liquid chromatography (RP-HPLC) was performed on a Water 600 E multi-solvent delivery system, using a Waters 486 tunable absorbance detector, a 717 autosampler, and a ThermoHypersil Keystone Betabasic-18 column μ150 Å pore size, 3 μm particle size, and mobile phase A; 0.1% TFA in 95% H2O+5% CH3CN and mobile phase B, 0.1% TFA in 95% CH3CN+5% H2O). Linear gradients were run from 100:0 to 0:100 A:B for 27 minutes.

[2] = biological target: T1, WT-TTR; experiment: Acid-mediated WT-TTR fibril formation assay (turbidity at 400 nm); assay type: biochemical; details: WT-TTR 3.6 μM, % fibril formation after 72 hours; read-out: IC50 (apparent), inhibition of WT-TTR amyloidogenesis
Experimental: The mixtures were vortexed and incubated (maintained) for 18 hours at 25° C.

[3] = biological target: T2, K15A-TTR (Homo sapiens, UniProt P02766, K35A); experiment: Acid-mediated K15A-TTR fibril formation with non-covalent stabilizers; assay type: biochemical; details: compound 7.2 μM, 72 hours, pH 4.4
T2 construct: composed of 127-residue β-sheet-rich subunits; made in house
Experimental: Compounds (5 μL of 1.44 mM solution in DMSO) were added to 495 μL of TTR (7.2 μM, in 10 mM sodium phosphate, 100 mM KCl, 1 mM EDTA, pH 7.0). The mixtures were vortexed and incubated (maintained) for 18 hours at 25° C. An acidic buffer solution (500 μL, 100 mM acetate, 100 mM KCl, 1 mM EDTA, pH 4.2) was added to obtain a final pH value of 4.4, and the mixtures were incubated at 37° C. for 72 hours without agitation. The solutions were vortexed to evenly distribute any precipitate, and turbidity was measured at 400 nm using a Hewlett Packard model 8453 UV-VIS Spectrophotometer.

[4] = tested on: WT-TTR cytotoxicity in human IMR-32 neuroblastoma cells; experiment: Inhibition of WT-TTR cytotoxicity in IMR-32 cells (resazurin reduction); assay type: cell-based; details: WT-TTR 8 μM, compounds 2, 4, 6 and 8 μM, 24 hours
Experimental: Cell viability was measured after 24 hours by a resazurin reduction assay.
(§1) The human neuroblastoma IMR-32 cell line (CCL-127 ATCC) was maintained in Opti-MEM® medium (Invitrogen), supplemented with 5% FBS, 1 mM Hepes buffer, 2 mM L-glutamine, 100 units/mL penicillin, 100 μg/mL streptomycin and 0.05 mg/mL CaCl2 (complete cell medium). Cells were seeded in black wall, clear bottom, tissue culture treated 96-well plates (Costar) at a density of 6,000 cells/well in complete cell medium and incubated overnight (about 18 hours) at 37° C.
(§2) Recombinant WT-TTR purified in the cold was used as the cytotoxic insult. The protein was buffer-exchanged in Hanks' Balanced Salt Solution (HBSS, Mediatech, Manassas, Va.) at 10° C. using a Centriprep® filter device (10 kDa MWCO, Millipore). Compounds (16 mM in DMSO) were diluted 1:1000 with WT-TTR (16 μM in HBSS, filter sterilized) or with HBSS only, vortexed and incubated for 18 hours at 37° C. WT-TTR (16 μM in HBSS) containing the same amount of DMSO was prepared in parallel and incubated under the same conditions.
(§3) The medium was removed from the cells and replaced immediately by the TTR/compound mixtures or HBSS previously diluted 1:1 in Opti-MEM® supplemented with 0.8 mg/mL BSA, 2 mM Hepes buffer, 4 mM L-glutamine, 200 units/mL penicillin, 200 μg/mL streptomycin and 0.1 mg/mL CaCl2. The cells were incubated 24 hours at 37° C. Cell viability was evaluated by a resazurin reduction assay.
(§4) Briefly, 10 μL of resazurin (500 μM, PBS) was added to each well and fluorescence quantified in a plate reader (Ex/Em 530/590 nm, Tecan Safire 2, Austria) after 1 hour of incubation at 37° C. Cell viability was calculated as percentage of fluorescence relative to cells treated only with vehicle (100% viability) after subtraction of blank fluorescence (wells without cells). Averages and standard errors from 2 independently performed studies, each performed at least in triplicate, were calculated using GraphPrism (San Diego, Calif., US).

[5] = tested on: IMR-32 cells; experiment: Compound cytotoxicity to IMR-32 cells in the absence of WT-TTR; assay type: cell-based, human
Experimental: Metabolically active cells reduce the resazurin redox dye to resorufin, a soluble fluorescent compound. [O'Brien et al., Eur. J. Biochem. 267:5421-5426 (2002)] The percentage of viable cells was calculated relative to cells treated with vehicle only (cell culture media and DMSO=100% viable).
as §1, §2, §3, §4

[6] = biological target: T2, K15A-TTR; experiment: Fluorimetric assay with recombinant K15A-TTR; assay type: binding; details: B2 7.2 μM
Experimental: [The source words this procedure for another variant and says it was used here with some conditions changed.] The excitation spectra are shown with dotted traces (λmax=328 nm), and emission spectra are adjacently (λmax=384 nm). Very low fluorescence resulted from 328 nm excitation of stilbene Compounds 4 or 2 alone in buffer (FIGS. 4A and 4B; traces substantially on the X-axis).
WT-TTR was expressed in an E. coli expression system and purified as described previously. [Lashuel et al., Biochemistry 1999, 38, 13560-13573] The covalent TTR modifiers (A1 or A2) or the non-covalent TTR ligand B2 (5 μL of a 1.44 mM solution in DMSO, final concentration: 7.2 μM) were added to 1 mL of a solution of WT-TTR homotetramer (0.2 mg/mL, 3.6 μM) in 10 mM phosphate, 100 mM KCl and 1 mM EDTA (pH 7.0 phosphate buffer) in a 2 mL Eppendorf tube. The samples were vortexed, and incubated for 18 h at 25° C. The fluorescence changes were monitored using a Varian Cary 50 spectrofluorometer at 20° C. in a 1 cm path length quartz cell. The excitation slit was set at 5 nm and the emission slit was set at […]. The samples were excited at 328 nm and the emission spectra were collected from 350 to 550 nm.
WT-TTR was expressed and purified from an E. coli expression system as described previously. [Lashuel et al., Biochemistry 1999, 38:13560]. The covalent modifiers (Compounds 4 or 2) or the non-covalent TTR ligand Compound B2 (5 μL of a 1.44 mM solution in DMSO) were added to 1 mL of a solution of WT-TTR (0.2 mg/mL, 3.6 μM) in 10 mM phosphate, 100 mM KCl and 1 mM EDTA (pH 7.0) in a 2 mL Eppendorf tube. The samples were vortexed, and incubated for 18 hours at 25° C. The fluorescence changes were monitored using a Varian Cary 50 spectrofluorometer at 20° C. in a 1 cm path length quartz cell. The excitation slits was set at 5 nm and the emission slits was set at […]. The samples were excited at 328 nm and the emission spectra were collected from 330 to 550 nm (FIG. 4). The time-dependent fluorescence changes were monitored in similar manner (FIG. 5).

[7] = Quantum yield measurement in buffer; assay type: physicochemical
Experimental: (§5) The covalent TTR modifier A1 or A2 or the non-covalent TTR ligand B2 (15 μL of a 1.44 mM solution in DMSO, final concentration: 7.2 μM) was added to 3 mL of a solution of WT-TTR homotetramer (0.2 mg/mL, 3.6 μM) in 10 mM phosphate, 100 mM KCl and 1 mM EDTA (pH 7.0 phosphate buffer). The samples were vortexed, and incubated for 18 hours at 25° C. Quantum yields were measured by following the instructions at the web site: jobinyvon.com/usadivisions/Fluorescence/applications/quantumyieldstrad.pdf. Quinine bisulfate in 0.5 M H2SO4 was used as a reference for comparison (Φf=0.546). [Crosby et al., J. Phys. Chem. 1971, 75, 991-1024.]

[8] = biological target: T1, WT-TTR; experiment: Quantum yield measurement with WT-TTR; assay type: physicochemical; details: compound 7.2 μM
Experimental: as §5

[9] = Photoisomerization upon irradiation (312 nm, 10 seconds); assay type: physicochemical; details: 312 nm
Experimental: Although TTR can bind to small molecules composed of two aromatic rings when the tethered rings are up to 40° out of plane {based on TTR-stilbene crystal structures [Klabunde et al., Nat. Struct. Biol. 2000, 7, 312-321; Connelly et al., Curr. Opin. Struc. Biol. 2010, 20, 54-62; Johnson et al., J. Med. Chem. 2008, 51, 6348-6358; Choi et al., J. Am. Chem. Soc. 2010, 132, 1359-1370; Choi et al., Nat. Chem. Biol. 2010, 6, 133-139; Baures et al., Bioorg. Med. Chem. 1998, 6, 1389-1401; and Baures et al., Bioorg. Med. Chem. 1999, 7, 1339-1347]}, it would be energetically unfavorable to bind the excited singlet state in a conformation where the two aryl rings are oriented perpendicular to one another. Thus, we propose that the increase in fluorescence quantum yield of B2 from 0.09 in buffer to 0.55 in complex with TTR results from the resculpted excited singlet state energy surface of the stilbene in complex with TTR, such that the trans-conformer is the only state of relatively low potential energy [Gorner, H.; Kuhn, H. J. Adv, Photochem. 1995, 19, 1-117; Malkin et al., J. Phys. Chem. 1964, 68, 1153-1163; Saltiel, J. J. Am. Chem. Soc. 1967, 89, 1036-1037; Saltiel et al., J. Am. Chem. Soc. 1972, 94, 6445-6457; Saltiel et al., J. Am. Chem. Soc. 1979, 101, 2982-2996; and Saltiel et al., J. Am. Chem. Soc. 1968, 90, 4759-4760] inhibiting photoisomerization-based relaxation of B2. That B2 binding to TTR inhibits B2 photoisomerization is consistent with the observation that the irradiation of B2 in buffer (Life Technologies, TFX-35M, 312 nm) for 10 seconds affords 60% of the cis isomer, along with other minor photoreaction products, whereas irradiation of B2 bound to TTR yields only 20% cis isomer.
It appears that the increase in fluorescence quantum yield of A2 from 0.00 in buffer to 0.27 in the TTR-(stilbene)n≦2 conjugate is only partly explained by the mechanism proposed for B2 [Gorner, H.; Kuhn, H. J. Adv, Photochem. 1995, 19, 1-117; Malkin et al., J. Phys. Chem. 1964, 68, 1153-1163; Saltiel, J. J. Am. Chem. Soc. 1967, 89, 1036-1037; Saltiel et al., J. Am. Chem. Soc. […]

[10] = tested on: familial amyloid polyneuropathy (FAP); details: phase II/III placebo-controlled; cited from earlier work
[11] = tested on: WT-TTR cytotoxicity in human IMR-32 neuroblastoma cells; details: cited from earlier work

Structure (SMILES): Cc1cc(/C=C/c2ccccc2)cc(C)c1O [Compound 9, reference compound]
- stabilization of K15A-TTR (in words) [3]: additional stabilization of K15A-TTR was observed
- inhibition of WT-TTR cytotoxicity to IMR-32 cells (in words) [4]: clearly and dose-dependently inhibits IMR-32 cytotoxicity
- cytotoxicity to IMR-32 cells in the absence of WT-TTR ([5]; human, IMR-32 neuroblastoma cells, 24 h, 8 µM): None of these compounds were cytotoxic to IMR-32 cells

Structure (SMILES): O=C(O)c1ccc2nc(-c3cc(Cl)cc(Cl)c3)oc2c1 [Tafamidis]
- clinical efficacy in familial amyloid polyneuropathy [10]: halt the progression of familial amyloid polyneuropathy

Structure (SMILES): Oc1ccc(C=Cc2cc(O)cc(O)c2)cc1 [resveratrol]
- inhibition of amyloid-formation-associated cytotoxicity (literature) [11]: known to inhibit amyloid-formation-associated cytotoxicity

Continued, in another order:

- modification yield of the WT-TTR subunits (in words) [1]: lower modification yield
Structure (SMILES): Cc1cc(/C=C/c2ccc(C(=O)Oc3ccc(F)cc3)cc2)cc(C)c1O [Compound 7]

- IC50 [2]: ~3 µM
Structure (SMILES): Cc1cc(/C=C/c2ccc(C(=O)O)cc2)cc(C)c1O [Compound 8, reference compound]
- stabilization of K15A-TTR (in words) [3]: additional stabilization of K15A-TTR was observed
- inhibition of WT-TTR cytotoxicity to IMR-32 cells (in words) [4]: clearly and dose-dependently inhibits IMR-32 cytotoxicity
- cytotoxicity to IMR-32 cells in the absence of WT-TTR [5]: None of these compounds were cytotoxic to IMR-32 cells

- increase in fluorescence intensity upon binding to K15A-TTR (B2) [6]: approximately 4 fold
- fluorescence quantum yield in buffer [7]: 0.09
- fluorescence quantum yield in complex or conjugate with TTR [8]: 0.55
- % cis isomer after irradiation bound to TTR [9]: 20%
- % cis isomer after irradiation in buffer [9]: 60%
Structure (SMILES): CCCNC(=O)c1cc(/C=C/c2cc(C)c(O)c(C)c2)cc(N(C)C)c1 [Compound B2, (E)-3-(dimethylamino)-5-(4-hydroxy-3,5-dimethylstyryl)-N-propylbenzamide]
